ChEMBL document CHEMBL1201862, “PubChem BioAssay data set” (2004)
Active and inactive are the calls of the source.

What was measured:
[1] = target: Ubiquitin carboxyl-terminal hydrolase BAP1 (Homo sapiens, UniProt Q92560); assay: inhibition of BAP1 ubiquitin hydrolase activity – biochemical, dose response (AID 714); assay type: functional
[2] = target: T1, Estrogen receptor (Homo sapiens, UniProt P03372);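 also: potency for inhibiting coactivator peptide recruitment to the receptor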
T1 sequence (P03372 whole entry): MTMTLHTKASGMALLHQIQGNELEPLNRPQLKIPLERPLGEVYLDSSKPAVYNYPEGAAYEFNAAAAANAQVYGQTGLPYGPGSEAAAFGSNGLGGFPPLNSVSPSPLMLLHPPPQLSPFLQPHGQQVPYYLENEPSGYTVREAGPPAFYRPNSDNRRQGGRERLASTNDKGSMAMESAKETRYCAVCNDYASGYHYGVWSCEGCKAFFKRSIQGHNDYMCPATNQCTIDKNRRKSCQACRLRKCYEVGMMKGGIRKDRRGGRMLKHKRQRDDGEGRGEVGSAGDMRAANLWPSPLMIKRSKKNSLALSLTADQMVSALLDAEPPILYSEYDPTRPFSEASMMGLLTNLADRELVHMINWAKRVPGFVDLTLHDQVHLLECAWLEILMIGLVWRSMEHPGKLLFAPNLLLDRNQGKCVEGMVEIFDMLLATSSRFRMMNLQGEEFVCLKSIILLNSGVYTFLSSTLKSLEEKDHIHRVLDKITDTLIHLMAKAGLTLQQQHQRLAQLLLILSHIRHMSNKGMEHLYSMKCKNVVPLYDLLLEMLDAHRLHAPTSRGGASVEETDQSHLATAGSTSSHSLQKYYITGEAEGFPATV

[3] = target: Protein Tat (Human immunodeficiency virus type 1 group M subtype B (isolate HXB2)(HIV-1), UniProt P04608); assay type: functional;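 also: tat binding to TAR RNA read out by fluorescence polarization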
[4] = M. tuberculosis growth inhibition, HTS (AID 449762); assay type: functional
[5] = target: Galanin receptor type 2 (Homo sapiens, UniProt O43603); assay: Dose Response cell-based high-throughput screening assay to identify agonists of galanin receptor 2 (GALR2). [Related pubchem assays: 864 ]; assay type: functional
[6] = target: Mitogen-activated protein kinase 10 (Homo sapiens, UniProt P53779); assay: Dose response biochemical screening assay for inhibitors of c-Jun N-Terminal Kinase 3 (JNK3). [Related pubchem assays: 746 ]
[7] = target: DNA dC->dU-editing enzyme APOBEC-3A (Homo sapiens, UniProt P31941); assay: Dose Response confirmation of small molecule APOBEC3A DNA Deaminase Inhibitors via a fluorescence-based single-stranded DNA deaminase assay. [Related pubchem assays (depositor defined):AID493011, AID493024]; assay type: functional
[8] = target: DNA dC->dU-editing enzyme APOBEC-3G (Homo sapiens, UniProt Q9HC16); assay type: functional;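 also: Dose-response counterscreen measuring inhibition of APOBEC3G DNA deaminase activity, run while confirming APOBEC3A inhibitors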
[9] = target: Diphosphomevalonate decarboxylase (Streptococcus pneumoniae serotype 2 (strain D39 / NCTC 7466), UniProt Q9FD53); assay: diphosphomevalonate decarboxylase inhibitor confirmation – biochemical, cuvette format, coupled NADH fluorescence (AID 1028); assay type: functional
[10] = target: Peroxisome proliferator-activated receptor gamma/Nuclear receptor corepressor 2 (Homo sapiens, UniProt P37231+Q9Y618); assay: Counterscreen for NR2E3 inverse agonists: TR-FRET-based biochemical high throughput dose response assay to identify inverse agonists of the interaction between peroxisome proliferator-activated receptor gamma (PPARg) and nuclear receptor co-repressor 2 (NCOR2).; assay type: functional
[11] = target: Photoreceptor-specific nuclear receptor (Homo sapiens, UniProt Q9Y5X4); assay: ligands suppressing NR2E3 nuclear receptor activity – biochemical, TR-FRET, dose response (AID 463256); assay type: functional
[12] = target: Tyrosine-protein phosphatase non-receptor type 11 (Homo sapiens, UniProt Q06124); assay: PTPN11 enzyme inhibitors – biochemical, selectivity assay for STEP inhibitor project, dose response (AID 602367); assay type: functional; details: read-out: IC50_Mean
[13] = target: Tyrosine-protein phosphatase non-receptor type 5 (Homo sapiens, UniProt P54829); assay: PTPN5 enzyme inhibition – biochemical, fluorescence intensity, uHTS hits, confirmation (AID 602372); assay type: functional; details: read-out: IC50_Mean
[14] = target: Dual specificity protein phosphatase 3 (Homo sapiens, UniProt P51452); assay: VHR phosphatase inhibition, dose response, selectivity assay for STEP inhibitor project, biochemical (AID 602374); assay type: functional; details: read-out: IC50_Mean
[15] = target: Tyrosine-protein phosphatase non-receptor type 22 (Homo sapiens, UniProt Q9Y2R2); assay: lymphoid phosphatase LYP inhibitors – biochemical, selectivity assay for STEP inhibitor project, dose response (AID 624241); assay type: functional
[16] = IC50 of insulin release inhibition, rat insulinoma INS-1E line, 5 mM glucose, cell-based (AID 1117331); assay type: functional
[17] = cells; assay type: functional, cell-based; details: INS-1E

Mitogen-activated protein kinase 10, sequence (P53779 whole entry): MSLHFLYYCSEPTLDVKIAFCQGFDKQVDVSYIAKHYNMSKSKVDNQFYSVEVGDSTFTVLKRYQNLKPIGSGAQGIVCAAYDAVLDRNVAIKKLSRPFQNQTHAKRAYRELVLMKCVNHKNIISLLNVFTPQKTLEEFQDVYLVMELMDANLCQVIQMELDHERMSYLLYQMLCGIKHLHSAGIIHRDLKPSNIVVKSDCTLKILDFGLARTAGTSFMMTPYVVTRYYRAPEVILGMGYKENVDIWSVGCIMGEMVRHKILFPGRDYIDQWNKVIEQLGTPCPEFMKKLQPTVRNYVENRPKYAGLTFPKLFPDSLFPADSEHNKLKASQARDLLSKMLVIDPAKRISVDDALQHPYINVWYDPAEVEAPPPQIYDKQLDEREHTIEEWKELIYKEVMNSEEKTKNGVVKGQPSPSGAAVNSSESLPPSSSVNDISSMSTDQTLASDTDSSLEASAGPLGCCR
Diphosphomevalonate decarboxylase, sequence (Q9FD53 whole entry): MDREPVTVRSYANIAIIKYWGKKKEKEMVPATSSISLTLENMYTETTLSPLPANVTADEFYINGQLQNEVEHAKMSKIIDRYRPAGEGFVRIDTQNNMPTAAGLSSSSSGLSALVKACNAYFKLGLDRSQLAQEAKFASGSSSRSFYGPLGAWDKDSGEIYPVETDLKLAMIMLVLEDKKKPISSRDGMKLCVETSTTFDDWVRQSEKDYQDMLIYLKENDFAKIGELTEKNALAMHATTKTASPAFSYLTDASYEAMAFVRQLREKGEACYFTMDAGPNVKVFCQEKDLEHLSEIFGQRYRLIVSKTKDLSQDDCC
Tyrosine-protein phosphatase non-receptor type 11, sequence (Q06124 whole entry): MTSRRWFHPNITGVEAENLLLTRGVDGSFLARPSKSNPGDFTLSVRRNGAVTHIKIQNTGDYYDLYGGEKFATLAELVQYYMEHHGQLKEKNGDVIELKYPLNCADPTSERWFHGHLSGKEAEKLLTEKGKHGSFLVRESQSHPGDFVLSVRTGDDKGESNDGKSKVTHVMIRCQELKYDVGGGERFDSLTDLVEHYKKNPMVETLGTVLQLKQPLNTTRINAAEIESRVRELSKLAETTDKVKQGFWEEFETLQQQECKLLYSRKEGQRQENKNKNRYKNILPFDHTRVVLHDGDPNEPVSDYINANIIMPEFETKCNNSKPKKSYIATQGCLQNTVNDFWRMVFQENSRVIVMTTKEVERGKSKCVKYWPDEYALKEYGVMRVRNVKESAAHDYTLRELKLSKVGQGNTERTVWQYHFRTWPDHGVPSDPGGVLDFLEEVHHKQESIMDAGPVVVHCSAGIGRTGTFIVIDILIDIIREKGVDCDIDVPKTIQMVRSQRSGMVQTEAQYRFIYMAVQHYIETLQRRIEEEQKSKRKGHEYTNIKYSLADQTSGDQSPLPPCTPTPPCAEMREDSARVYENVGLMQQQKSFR
Tyrosine-protein phosphatase non-receptor type 22, sequence (Q9Y2R2 whole entry): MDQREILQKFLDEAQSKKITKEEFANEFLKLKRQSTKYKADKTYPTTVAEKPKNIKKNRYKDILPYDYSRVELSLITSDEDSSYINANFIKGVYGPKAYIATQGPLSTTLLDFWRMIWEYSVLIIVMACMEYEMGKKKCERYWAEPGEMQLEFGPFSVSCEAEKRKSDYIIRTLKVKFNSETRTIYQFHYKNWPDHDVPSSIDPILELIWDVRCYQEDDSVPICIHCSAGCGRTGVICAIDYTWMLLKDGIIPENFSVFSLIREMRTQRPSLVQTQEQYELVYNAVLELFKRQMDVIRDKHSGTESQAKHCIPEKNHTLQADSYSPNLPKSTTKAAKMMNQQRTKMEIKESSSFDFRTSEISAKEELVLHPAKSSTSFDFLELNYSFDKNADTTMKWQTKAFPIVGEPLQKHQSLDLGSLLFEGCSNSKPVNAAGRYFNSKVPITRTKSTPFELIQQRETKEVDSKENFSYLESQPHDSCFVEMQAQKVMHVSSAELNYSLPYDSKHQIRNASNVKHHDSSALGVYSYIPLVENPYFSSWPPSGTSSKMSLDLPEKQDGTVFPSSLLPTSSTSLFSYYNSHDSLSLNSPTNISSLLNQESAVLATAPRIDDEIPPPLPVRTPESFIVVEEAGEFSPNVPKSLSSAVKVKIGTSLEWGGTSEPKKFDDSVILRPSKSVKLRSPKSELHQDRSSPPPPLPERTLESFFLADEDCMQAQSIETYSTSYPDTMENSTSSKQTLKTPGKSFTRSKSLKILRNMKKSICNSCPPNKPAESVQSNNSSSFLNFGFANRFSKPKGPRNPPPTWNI
DNA dC->dU-editing enzyme APOBEC-3G, sequence (Q9HC16 whole entry): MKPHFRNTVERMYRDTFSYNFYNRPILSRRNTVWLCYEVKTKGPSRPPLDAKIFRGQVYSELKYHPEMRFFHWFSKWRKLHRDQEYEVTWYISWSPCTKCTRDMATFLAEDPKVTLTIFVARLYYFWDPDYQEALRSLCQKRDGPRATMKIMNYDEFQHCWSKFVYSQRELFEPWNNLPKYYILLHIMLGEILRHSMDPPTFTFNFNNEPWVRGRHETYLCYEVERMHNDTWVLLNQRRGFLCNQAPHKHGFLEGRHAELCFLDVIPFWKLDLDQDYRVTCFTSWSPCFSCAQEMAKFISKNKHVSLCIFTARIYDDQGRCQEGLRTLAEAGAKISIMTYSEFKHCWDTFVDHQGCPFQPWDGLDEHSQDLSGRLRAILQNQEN
Galanin receptor type 2, sequence (O43603 whole entry): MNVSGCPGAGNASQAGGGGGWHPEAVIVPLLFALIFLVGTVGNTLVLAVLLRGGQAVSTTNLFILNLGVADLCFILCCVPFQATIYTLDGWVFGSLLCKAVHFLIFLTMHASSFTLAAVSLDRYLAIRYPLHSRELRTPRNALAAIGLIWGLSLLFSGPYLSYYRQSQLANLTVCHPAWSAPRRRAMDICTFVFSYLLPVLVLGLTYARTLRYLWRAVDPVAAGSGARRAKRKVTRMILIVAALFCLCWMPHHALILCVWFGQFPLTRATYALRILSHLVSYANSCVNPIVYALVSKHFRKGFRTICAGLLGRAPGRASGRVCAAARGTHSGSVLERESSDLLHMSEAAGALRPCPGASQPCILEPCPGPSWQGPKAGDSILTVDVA
Protein Tat, sequence (P04608 whole entry): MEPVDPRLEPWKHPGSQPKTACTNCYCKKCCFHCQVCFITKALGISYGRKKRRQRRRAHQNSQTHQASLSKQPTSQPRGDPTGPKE
DNA dC->dU-editing enzyme APOBEC-3A, sequence (P31941 whole entry): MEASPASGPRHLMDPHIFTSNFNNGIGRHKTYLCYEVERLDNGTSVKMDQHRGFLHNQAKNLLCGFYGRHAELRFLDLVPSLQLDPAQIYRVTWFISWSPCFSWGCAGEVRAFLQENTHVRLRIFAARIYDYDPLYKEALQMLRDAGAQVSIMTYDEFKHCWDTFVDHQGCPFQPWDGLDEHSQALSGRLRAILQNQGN
Dual specificity protein phosphatase 3, sequence (P51452 whole entry): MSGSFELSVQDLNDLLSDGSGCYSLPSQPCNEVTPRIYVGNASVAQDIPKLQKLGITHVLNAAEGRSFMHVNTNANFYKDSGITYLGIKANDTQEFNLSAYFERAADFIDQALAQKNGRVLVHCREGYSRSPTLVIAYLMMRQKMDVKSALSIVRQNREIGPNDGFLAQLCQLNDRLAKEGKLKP
Tyrosine-protein phosphatase non-receptor type 5, sequence (P54829 whole entry): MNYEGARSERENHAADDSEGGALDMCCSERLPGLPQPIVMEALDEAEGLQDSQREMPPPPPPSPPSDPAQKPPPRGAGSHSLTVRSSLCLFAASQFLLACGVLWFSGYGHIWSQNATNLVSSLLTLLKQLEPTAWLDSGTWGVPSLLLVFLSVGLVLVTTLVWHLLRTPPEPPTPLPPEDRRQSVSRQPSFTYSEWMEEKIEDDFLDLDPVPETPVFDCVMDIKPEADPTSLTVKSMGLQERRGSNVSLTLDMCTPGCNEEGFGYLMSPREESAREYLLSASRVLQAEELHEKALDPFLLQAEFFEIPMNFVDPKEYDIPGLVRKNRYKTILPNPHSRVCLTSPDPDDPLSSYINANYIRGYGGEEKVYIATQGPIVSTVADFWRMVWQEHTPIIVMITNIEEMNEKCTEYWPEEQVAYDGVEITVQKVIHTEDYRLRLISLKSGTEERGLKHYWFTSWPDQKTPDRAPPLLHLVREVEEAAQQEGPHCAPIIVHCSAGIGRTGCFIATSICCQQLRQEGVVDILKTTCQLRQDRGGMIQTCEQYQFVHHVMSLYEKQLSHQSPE
Ubiquitin carboxyl-terminal hydrolase BAP1, sequence (Q92560 whole entry): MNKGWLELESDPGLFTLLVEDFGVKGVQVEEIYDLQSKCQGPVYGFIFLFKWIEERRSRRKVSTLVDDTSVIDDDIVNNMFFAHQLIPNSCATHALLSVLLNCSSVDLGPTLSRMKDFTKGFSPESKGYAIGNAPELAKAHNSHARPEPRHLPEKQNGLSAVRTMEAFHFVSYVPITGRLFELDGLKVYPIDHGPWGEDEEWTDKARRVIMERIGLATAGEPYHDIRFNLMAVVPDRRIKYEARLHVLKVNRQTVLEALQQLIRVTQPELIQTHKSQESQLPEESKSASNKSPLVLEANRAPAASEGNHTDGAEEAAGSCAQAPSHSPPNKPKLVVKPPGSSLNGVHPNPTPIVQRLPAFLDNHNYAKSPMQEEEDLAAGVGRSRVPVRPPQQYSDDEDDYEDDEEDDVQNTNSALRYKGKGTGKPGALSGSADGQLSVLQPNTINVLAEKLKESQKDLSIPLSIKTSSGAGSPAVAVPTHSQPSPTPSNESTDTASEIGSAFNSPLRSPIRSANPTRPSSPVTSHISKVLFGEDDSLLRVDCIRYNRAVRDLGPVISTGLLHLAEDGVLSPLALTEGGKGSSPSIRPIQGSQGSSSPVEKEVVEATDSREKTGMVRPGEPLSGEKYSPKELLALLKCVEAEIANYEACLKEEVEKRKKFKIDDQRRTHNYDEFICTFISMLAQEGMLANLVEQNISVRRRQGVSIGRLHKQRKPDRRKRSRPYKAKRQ

## Cc1sc(NC(=O)CSc2nnc(-c3ccc(F)cc3)o2)c(C#N)c1C
[1]
  IC50: 10.5 µM (active)
[2]
  IC50: > 50 µM (not active)

## CCc1ccccc1N(CC(=O)NCCSCc1ccco1)S(C)(=O)=O
[3]
  IC50: > 100 µM (active)

## Cc1cc(/C=C(/C#N)c2cccc(F)c2)c(C)n1-c1cccnc1
[4]
  IC50: > 100 µM (active)

## C=CCNC(=O)/C(C#N)=C/c1cn(-c2ccccc2)nc1-c1cccs1
[5]
  EC50: 45.4 µM (not active)

## CC1(C)Oc2ccc3ccc(=O)oc3c2-c2c[nH]nc21
[6]
  IC50: > 31 µM (not active)
[7]
  IC50: 4.45 µM (active)
[8]
  IC50: 5.7 µM (active)

## O=C(NCc1ccco1)c1cccc(-n2sc3ccccc3c2=O)c1
[9]
  IC50: 10.5 µM (active)

## COc1ccc(-c2ccc(NC(=O)c3ccc(Br)o3)cc2)nn1
[10]
  IC50: 4.7 µM (active)
[11]
  IC50: 3.38 µM (active)
[12]
  IC50: 4.3 µM (active)
[13]
  IC50: 18 µM (active)
[14]
  IC50: 6.6 µM (active)
[15]
  IC50: 74.1 µM (inactive)

## c1cc(CN2CCCCC2)cc(OCCCNc2nc3ccccc3s2)c1
[16]
  IC50: > 11.1 µM (inactive)
[17]
  IC50: > 33.3 µM (inactive)
